We go through 8 compounds from ChEMBL document CHEMBL4020799, “Design, synthesis of novel furan appended benzothiazepine derivatives and in vitro biological evaluation as potent VRV-PL-8a and H+/K+ ATPase inhibitors” (Bioorg Med Chem Lett, 2017).

The structures appear in SMILES notation. Active and inactive are the calls of the source. No cut-off for these calls is given here.

Usually IC50 stands for the point on the concentration scale where inhibition reaches its midpoint.

The target in test [1] is T1, Basic phospholipase A2 VRV-PL-VIIIa (Daboia russelii) (UniProt P59071).
T1 sequence (whole entry): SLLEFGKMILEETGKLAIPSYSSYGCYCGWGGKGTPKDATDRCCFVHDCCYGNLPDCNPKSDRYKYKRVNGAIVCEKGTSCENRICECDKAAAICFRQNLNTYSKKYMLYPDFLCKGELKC
Nature of the test: (§1) Inhibition of Vipera russelii sPLA2 pre-incubated for 5 mins before DMPC substrate addition and measured after 45 mins.

Test [2] addresses T2, Basic phospholipase A2 VRV-PL-VIIIa (Daboia russelii, UniProt P59071).
T2 sequence (P59071 whole entry): T1 sequence (whole entry)
Described as §1.

The nature of test [3]: Inhibition of hydrogen potassium ATPase in pig stomach mucosal membrane assessed as reduction in liberated inorganic phosphate level after 15 mins by colorimetric method. The test is classed as cell membranes, Sus scrofa.
Test [4] concerns the target T1, Basic phospholipase A2 VRV-PL-VIIIa (Daboia russelii). Nature of the test: Inhibition of Vipera russelii venom sPLA2-induced hemolytic activity in human erythrocytes assessed as reduction hemoglobin release in presence of egg yolk preincubated for 5 mins followed by erythrocyte addition by spectrophotometric analysis. It is filed as cell-based.
Test [5] shares this target. Put plainly: Inhibition of Vipera russelii venom sPLA2 at 11.01 uM in presence of fixed concentrations of DMPC substrate and 0 to 12 uM of calcium measured after 5 mins.
Test [6] shares this target. Put plainly: Inhibition of Vipera russelii venom sPLA2 at 11.01 uM in presence of fixed concentration of calcium and 0 to 400 uM of DMPC substrate measured after 5 mins.
Test [7] has the same target. Nature of the test: Inhibition of Vipera russelii venom sPLA2 assessed as remaining enzyme activity level at 11.01 uM in presence of fixed concentration of calcium and 400 uM of DMPC substrate measured after 5 mins.

Turning to `O=[N+]([O-])c1ccc(C2CC(c3ccco3)=Nc3ccccc3S2)cc1` (stereo not drawn), the inhibition entry in test [1] is “Dose-dependent effect”. Further, the results for the IC50 in test [2] and in test [3] were 56.9 µM and 3.73 µM, respectively.
Turning to `c1coc(C2=Nc3ccccc3SC(c3ccc4c(c3)OCO4)C2)c1` (stereo not drawn), the inhibition entry in test [1] was “Dose-dependent effect”. Further, the IC50 in test [2] was 25.1 µM; in test [3], 5.14 µM.
As to `Fc1ccc(C2CC(c3ccco3)=Nc3ccccc3S2)cc1` (stereo not drawn), the inhibition result in test [1] was “Dose-dependent effect”. The IC50 was found to be 25.2 µM in test [2] and 5.1 µM in test [3].
In the case of `COc1ccc(C2CC(c3ccco3)=Nc3ccccc3S2)cc1` (stereo not drawn), the inhibition result in test [1] and in test [4] was “Dose-dependent effect” throughout. Moreover, the concentration for half-maximal inhibition (IC50) in test [2] came to 11 µM; in test [3], 1.99 µM. The inhibition entry in test [5] and in test [6] was “Active” in each case. Also, the Activity in test [7] stood at 51%.
As to `c1ccc(C2CC(c3ccco3)=Nc3ccccc3S2)cc1` (stereo not drawn), in test [1], the inhibition entry was “Dose-dependent effect”. The IC50 in test [2] worked out at 12 µM; in test [3], 8.01 µM.
The matching figures for `Brc1ccc(C2CC(c3ccco3)=Nc3ccccc3S2)cc1` (stereo not drawn): “Dose-dependent effect”, 24.1 µM and 2.11 µM.
Turning to `Clc1ccc(C2CC(c3ccco3)=Nc3ccccc3S2)cc1` (stereo not drawn), the inhibition result in test [1] was “Dose-dependent effect”. For the same compound, the IC50 in test [2] came out at 19.3 µM; in test [3] it was 5.28 µM.
Taken in the same sequence, the figures for `COc1cc(C2CC(c3ccco3)=Nc3ccccc3S2)ccc1O` (stereo not drawn) were “Dose-dependent effect”, 43.4 µM and 4.39 µM.
